Columns and labels:
hKv3.1 = target: T1, hKv3.1 (Homo sapiens, UniProt P48547); assay: Automated patch clamp electrophysiology (Patchliner), CHO/Kv3.1 cells; format: cell-based; conditions: 10 μM compound, hKv3.1 in CHO-K1, whole-cell; for Kv3.1 Activity at 10 μM Potentiation (%): peak current at voltage step of −10 mV vs vehicle (0.33% DMSO); for Kv3.1 Activity at 10 μM Voltage Shift (mV): voltage shift of the IV curve at V1/2
T1 construct: expressed in transfected cells
T1 sequence (P48547 1-511): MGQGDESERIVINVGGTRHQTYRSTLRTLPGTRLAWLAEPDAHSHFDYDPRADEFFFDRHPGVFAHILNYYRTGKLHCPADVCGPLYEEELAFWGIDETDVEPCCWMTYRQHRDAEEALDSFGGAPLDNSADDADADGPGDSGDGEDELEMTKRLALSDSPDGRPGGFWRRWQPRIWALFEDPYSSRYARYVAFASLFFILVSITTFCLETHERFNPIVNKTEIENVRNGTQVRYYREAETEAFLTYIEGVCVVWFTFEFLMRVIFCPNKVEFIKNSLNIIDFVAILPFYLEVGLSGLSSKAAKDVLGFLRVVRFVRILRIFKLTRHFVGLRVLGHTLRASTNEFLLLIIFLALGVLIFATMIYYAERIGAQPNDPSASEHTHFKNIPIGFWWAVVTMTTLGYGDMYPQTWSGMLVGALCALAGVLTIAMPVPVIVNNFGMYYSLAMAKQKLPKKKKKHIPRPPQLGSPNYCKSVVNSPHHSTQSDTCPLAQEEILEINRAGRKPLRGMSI
Method: (§1) hKv3.1, hKv3.2, hKv3.3, and hKv3.4 were stably expressed in CHO-K1 (Chinese hamster ovary) cells and kept under constant antibiotic selection. For in vitro assays, cells were maintained in appropriate growth medium at 37° C. and 5% CO2 in a humidified incubator.
(§2) hKv3.X expressing cells were plated in T-25 flasks for 3-4 days at 37° C. (no selection antibiotic) prior to use and grown to 80% confluence. Cells were washed twice with PBS (calcium and magnesium free) and detached with a 5-minute treatment at 37° C. with 2-3 mls of Accutase®. Cells were collected, and flask was washed in CHO-SFM II media (Life Technologies Gibco), centrifuged for 2 minutes at ˜110×g and resuspended to obtain a single cell suspension of ˜2-3×10^6 cells/ml.
(§3) The intracellular solution contained the following (in mM): KCl 50, NaCl 10, KF 60, EGTA 20, HEPES 10, adjusted to pH 7.2 with KOH and an osmolarity of 285 mOsmol. Seal enhancer was purchased from Nanion (80 mM NaCl, 3 mM KCl, 10 mM MgCl2, 35 mM CaCl2), 10 mM HEPES, pH7.4, 298 mOsmol. The external solution contained (in mM): NaCl 140, KCl 4, CaCl2) 2, MgCl2 1, HEPES 10, Glucose 5, adjusted to pH7.4 and an osmolarity of 298 mOsmol.
(§4) All compounds were initially tested at 10 uM at a final DMSO concentration of 0.33%. Compounds were dissolved in dimethylsulfoxide (DMSO) at a stock concentration of 30 mM. The compound was further diluted 1:10 to give a stock concentration of 3 mM in DMSO. The final assay solution was diluted 1:300 in External solution to give a final concentration of 10 uM. For the DMSO Control Buffer 30 uL of DMSO was added to 10 mL buffer.
(§5) All electrophysiological recordings were performed at ambient temperature (21-23° C.) using automated patch clamp (Patchliner, Nanion Technologies GmbH) in the whole-cell configuration.
(§6) Cell membrane potentials were held at −80 mV, and currents were evoked by voltage steps (1000 ms duration) from −60 to +60 mV in 10 mV increments. This was performed first with vehicle (0.33% DMSO) and then with 10 uM compound, after a 3-minute incubation period. Data was taken from 4 cells per assay.
(§7) The recordings were analysed and selected using peak current amplitude (>100 pA at the −10 mV voltage step) in the absence of compound to eliminate unsuitable cells from analysis. Peak current amplitude was measured and recorded for each voltage step and data was normalised to the maximum current at +60 mV. The normalised Kv3.x currents following addition of the compound were then compared with the currents recorded prior to compound addition (vehicle control). Positive modulation was determined as % potentiation at the voltage step of −10 mV=[current (cmpd)/current (veh)]*100−100. % potentiation≥50% was considered acceptable. In addition, voltage shift of the IV curve at V1/2 was measured. V1/2 of ≥−5 mV was also considered acceptable. IV curves were plotted in GraphPad Prism (software version 6.0) and fitted with a Boltzmann equation, where V1/2 is the voltage at half-maximal activation.

hKv3.2 = target: T2, hKv3.2 (Homo sapiens, UniProt Q96PR1); assay: Automated patch clamp electrophysiology (Patchliner), CHO/Kv3.2 cells; format: cell-based; conditions: 10 μM compound, hKv3.2 in CHO-K1, whole-cell; for activation at 10 µM: peak current at voltage step of −10 mV vs vehicle (0.33% DMSO), read-out: Kv3.2 Activity at 10 μM Potentiation (%); for Kv3.2 Activity at 10 μM Voltage Shift (mV): voltage shift of the IV curve at V1/2
T2 construct: expressed in transfected cells
T2 sequence (Q96PR1 1-638): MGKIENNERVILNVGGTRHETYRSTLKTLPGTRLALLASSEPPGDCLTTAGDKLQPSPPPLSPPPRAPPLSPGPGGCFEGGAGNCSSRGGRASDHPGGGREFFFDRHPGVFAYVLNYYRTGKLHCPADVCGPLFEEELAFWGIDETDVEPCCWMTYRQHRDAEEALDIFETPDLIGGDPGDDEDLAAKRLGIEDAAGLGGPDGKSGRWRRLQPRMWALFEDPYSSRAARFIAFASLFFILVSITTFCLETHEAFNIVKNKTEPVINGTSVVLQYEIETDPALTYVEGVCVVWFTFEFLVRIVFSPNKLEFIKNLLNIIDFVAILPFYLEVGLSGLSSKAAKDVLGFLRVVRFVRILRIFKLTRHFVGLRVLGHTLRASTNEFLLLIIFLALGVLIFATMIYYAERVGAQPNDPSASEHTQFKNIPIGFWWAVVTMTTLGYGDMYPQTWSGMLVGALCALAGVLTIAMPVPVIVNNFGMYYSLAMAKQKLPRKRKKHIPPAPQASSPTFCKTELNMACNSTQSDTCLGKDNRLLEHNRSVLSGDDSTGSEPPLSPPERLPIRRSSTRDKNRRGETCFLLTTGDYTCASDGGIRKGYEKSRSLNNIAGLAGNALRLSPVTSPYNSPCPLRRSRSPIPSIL
Method: as §1, §2, §3, §4, §5, §6, §7

Row | Kv3.1 Activity at 10 μM Potentiation (%) (hKv3.1) | Kv3.1 Activity at 10 μM Voltage Shift (mV) (hKv3.1) | activation at 10 µM (hKv3.2) [%] | Kv3.2 Activity at 10 μM Voltage Shift (mV) (hKv3.2) | SMILES
1 | 45 | −5.5 | 25 | −4.3 mV | COc1cc(Oc2cc(N3C(=O)NC(C)(C)C3=O)ncn2)ccc1C [Example 1, 3-[6-(3-methoxy-4-methyl-phenoxy)pyrimidin-4-yl]-5,5-dimethyl-imidazolidine-2,4-dione]
2 | 40 | −2.7 | 86 | −9.2 mV | COc1cc(Oc2cc(N3C(=O)NC(C)(C)C3=O)ncn2)ccc1F [Example 13, 3-[6-(3-methoxy-4-fluoro-phenoxy)pyrimidin-4-yl]-5,5-dimethyl-imidazolidine-2,4-dione]
3 | 43 | −2.3 | 42 | −1.1 mV | COc1cc(Oc2cc(N3C(=O)NC4(CCCC4)C3=O)ncn2)ccc1F [Example 14, 3-[6-(4-fluoro-3-methoxy-phenoxy)pyrimidin-4-yl]-1,3-diazaspiro[4.4]nonane-2,4-dione]
4 | 17 | −2.7 | 1 | −0.3 mV | COc1cc(Oc2cc(N3C(=O)NC4(CCCCC4)C3=O)ncn2)ccc1F [Example 15, 3-[6-(4-fluoro-3-methoxy-phenoxy)pyrimidin-4-yl]-1,3-diazaspiro[4.5]decane-2,4-dione]
5 | 63 | −4.2 | 24 | −2.8 mV | Cc1ccc(Oc2cc(N3C(=O)NC(C)(C)C3=O)ncn2)cc1F [Example 16, 3-[6-(3-fluoro-4-methyl-phenoxy)pyrimidin-4-yl]-5,5-dimethyl-imidazolidine-2,4-dione]
6 | 36 | −2.8 | 54 | −4.9 mV | Cc1ccc(Oc2cc(N3C(=O)NC(C)(C)C3=O)ncn2)c2c1OCC21CC1 [Example 47, 5,5-dimethyl-3-[6-(7-methylspiro[2H-benzofuran-3,1′-cyclopropane]-4-yl)oxypyrimidin-4-yl]imidazolidine-2,4-dione]
7 | 2 | −1.5 | -7 | +1.6 mV | COc1cc(Oc2ccnc(N3C(=O)NC4(CCCCC4)C3=O)n2)ccc1C [Example 50, 3-[4-(3-methoxy-4-methyl-phenoxy)pyrimidin-2-yl]-1,3-diazaspiro[4.5]decane-2,4-dione]
8 | 52 | −4.0 | 49 | −6.0 mV | COc1cc(Oc2cncc(N3C(=O)NC(C)(C)C3=O)n2)ccc1C [Example 53, 3-[6-(3-methoxy-4-methyl-phenoxy)pyrazin-2-yl]-5,5-dimethyl-imidazolidine-2,4-dione]
9 | 26 | −5.0 | 35 | −4.6 mV | CC[C@H]1NC(=O)N(c2nccc(Oc3ccc(C)c(OC)c3)n2)C1=O [Example 56, (5R)-5-ethyl-3-[4-(3-methoxy-4-methyl-phenoxy)pyrimidin-2-yl]imidazolidine-2,4-dione]
10 | 61 | −6.9 | 39 | −4.6 mV | CC[C@H]1NC(=O)N(c2nccc(Oc3ccccc3-c3ccccc3)n2)C1=O [Example 58, (5R)-5-ethyl-3-[4-(2-phenylphenoxy)pyrimidin-2-yl]imidazolidine-2,4-dione]
11 | 50 | −4.2 | 25 | −2.3 mV | COc1cc(Oc2nccc(N3C(=O)NC(C)(C)C3=O)n2)ccc1C [Example 63, 3-[2-(3-methoxy-4-methyl-phenoxy)pyrimidin-4-yl]-5,5-dimethyl-imidazolidine-2,4-dione]
12 | 32 | −2.7 | 35 | −2.8 mV | COc1cc(Oc2nccc(N3C(=O)NC(C)(C)C3=O)n2)ccc1C(F)(F)F [Example 65, 3-[2-[3-methoxy-4-(trifluoromethyl)-phenoxy]pyrimidin-4-yl]-5,5-dimethyl-imidazolidine-2,4-dione]
13 | – | – | 54 | −3.5 mV | COc1cc(Oc2nccc(N3C(=O)NC(C)(C)C3=O)n2)ccc1Cl [Example 66, 3-[2-(4-chloro-3-methoxy-phenoxy)pyrimidin-4-yl]-5,5-dimethyl-imidazolidine-2,4-dione]
14 | 41 | −3.8 | 12 | −1.6 mV | COc1cc(Oc2nccc(N3C(=O)NC4(CCCCC4)C3=O)n2)ccc1C [Example 74, 3-[2-(3-methoxy-4-methyl-phenoxy)pyrimidin-4-yl]-1,3-diazaspiro[4.5]decane-2,4-dione]

— patent US12139473B2, “Substituted-N-heteroaryl compounds and uses thereof” (Bionomics Limited, priority 2019, dated 2024)
